Measurements taken from article PMC7891710, “The narrow-spectrum anthelmintic oxantel is a potent agonist of a novel acetylcholine receptor subtype in whipworms” (PLoS Pathogens, 2021).

Columns and labels:
[1] = biological target: T1, Tsu-ACR-16-like receptor (O-AChR) (Trichuris suis, UniProt A0A890W0I7); test: two-electrode voltage clamp in Xenopus oocytes, agonist dose-response; assay type: cell-based
T1 construct: full-length Tsu-ACR-16-like (GenBank MT386096), homomeric channel co-expressed with Asu-RIC-3 in Xenopus laevis oocytes
T1 sequence (A0A890W0I7 entry or part of it): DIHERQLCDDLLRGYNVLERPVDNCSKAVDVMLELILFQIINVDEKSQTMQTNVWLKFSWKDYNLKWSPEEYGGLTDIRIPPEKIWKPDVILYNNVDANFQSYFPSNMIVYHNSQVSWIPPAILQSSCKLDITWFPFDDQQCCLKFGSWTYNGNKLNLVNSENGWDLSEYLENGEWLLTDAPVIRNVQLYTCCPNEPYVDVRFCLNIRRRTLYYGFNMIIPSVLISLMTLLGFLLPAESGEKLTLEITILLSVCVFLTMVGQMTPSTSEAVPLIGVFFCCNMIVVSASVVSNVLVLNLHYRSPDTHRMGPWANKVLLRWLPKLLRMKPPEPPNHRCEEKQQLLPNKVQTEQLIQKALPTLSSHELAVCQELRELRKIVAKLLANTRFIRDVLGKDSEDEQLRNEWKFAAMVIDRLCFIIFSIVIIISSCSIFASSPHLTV

[2] = biological target: T1, Tsu-ACR-16-like receptor (O-AChR); test: two-electrode voltage clamp in Xenopus oocytes, agonist dose-response (partial, Imax […]); assay type: cell-based

CC(=O)OCC[N+](C)(C)C [ACh, acetylcholine]
EC50 [1]: 14.5 µM

CN1CCCN=C1/C=C/c1cccc(O)c1 [oxa, oxantel]
EC50 [1]: 9.49 µM

CN1CCCN=C1/C=C/c1cccs1 [pyr, pyrantel]
EC50 [2]: 148 µM
